One block for each molecule: values may come before it. The source made the active and inactive calls.
Key:
[1] = molecular target: Induced myeloid leukemia cell differentiation protein Mcl-1 (Homo sapiens, UniProt Q07820); type: functional
[2] = molecular target: 72 kDa type IV collagenase (Homo sapiens, UniProt P08253); assay: Dose Response validation of uHTS RPN11 inhibitor hits using a MMP-2 Fluorescence assay.; type: functional
Prothrombin = Prothrombin (Bos taurus, UniProt P00735); assay: thrombin inhibition, dose response, biochemical, fluorescence polarization, uHTS hits (AID 602369); type: functional
SUMO-activating enzyme [3] = molecular target: T1, SUMO-activating enzyme (Homo sapiens, UniProt Q9UBT2); assay: SUMOylation inhibitor hit validation, confirmation, SUMOylation inhibitor project, biochemical, AlphaScreen (AID 2018); type: functional
T1 sequence (Q9UBE0 whole entry): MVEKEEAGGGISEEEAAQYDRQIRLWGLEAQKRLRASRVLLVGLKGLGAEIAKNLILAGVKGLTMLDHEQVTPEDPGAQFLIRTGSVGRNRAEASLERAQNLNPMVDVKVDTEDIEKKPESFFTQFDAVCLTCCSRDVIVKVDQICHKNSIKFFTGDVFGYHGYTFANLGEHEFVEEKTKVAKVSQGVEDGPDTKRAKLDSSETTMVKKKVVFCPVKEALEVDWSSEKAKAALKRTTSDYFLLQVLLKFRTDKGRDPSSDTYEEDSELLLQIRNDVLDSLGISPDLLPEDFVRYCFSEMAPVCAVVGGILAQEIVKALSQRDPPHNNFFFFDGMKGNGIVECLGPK
T1 sequence (Q9UBT2 whole entry): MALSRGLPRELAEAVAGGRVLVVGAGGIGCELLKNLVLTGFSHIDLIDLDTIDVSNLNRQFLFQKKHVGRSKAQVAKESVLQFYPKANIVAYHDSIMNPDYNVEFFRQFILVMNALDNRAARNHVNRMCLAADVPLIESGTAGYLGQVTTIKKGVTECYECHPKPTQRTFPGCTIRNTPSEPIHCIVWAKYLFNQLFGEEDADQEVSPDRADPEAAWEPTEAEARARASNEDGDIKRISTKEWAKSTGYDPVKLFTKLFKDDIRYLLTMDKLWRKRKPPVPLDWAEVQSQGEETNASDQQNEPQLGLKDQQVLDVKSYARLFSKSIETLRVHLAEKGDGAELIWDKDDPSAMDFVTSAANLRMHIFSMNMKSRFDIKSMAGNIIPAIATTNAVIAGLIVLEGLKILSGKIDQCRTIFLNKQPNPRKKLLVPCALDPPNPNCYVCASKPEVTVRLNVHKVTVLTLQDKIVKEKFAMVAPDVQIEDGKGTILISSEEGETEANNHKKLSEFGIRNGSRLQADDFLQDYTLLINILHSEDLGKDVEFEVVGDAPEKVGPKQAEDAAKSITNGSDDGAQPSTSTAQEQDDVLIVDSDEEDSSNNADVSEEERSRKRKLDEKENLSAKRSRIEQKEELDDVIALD

SUMO-activating enzyme [4] = molecular target: T1, SUMO-activating enzyme; assay: inhibitors of in vitro SUMOylation cascade, primary screen, biochemical, HTRF, uHTS (AID 2006); type: protein-complex assay
[5] = molecular target: 26S proteasome non-ATPase regulatory subunit 14 (Homo sapiens, UniProt O00487); assay: inhibition of proteasome subunit RPN11 – biochemical, fluorescence polarization, uHTS hits, confirmation (AID 602368); type: functional
Chain of 26S proteasome non-ATPase regulatory subunit 14 (O00487 whole entry): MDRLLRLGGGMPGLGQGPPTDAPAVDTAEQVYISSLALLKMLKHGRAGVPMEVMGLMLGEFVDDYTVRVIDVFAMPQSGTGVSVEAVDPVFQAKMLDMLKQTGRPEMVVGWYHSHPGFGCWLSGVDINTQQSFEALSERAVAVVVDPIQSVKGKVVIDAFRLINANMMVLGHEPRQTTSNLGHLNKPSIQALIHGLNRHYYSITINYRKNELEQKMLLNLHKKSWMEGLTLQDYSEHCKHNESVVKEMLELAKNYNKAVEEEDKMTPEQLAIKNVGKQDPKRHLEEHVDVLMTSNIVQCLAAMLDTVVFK

Albumin = Albumin (Bos taurus, UniProt P02769); assay: Counterscreen for inhibitors of T-cell receptor (TCR)-CD3 interaction: Fluorescence-based biochemical high throughput dose response assay to identify inhibitors of T-cell receptor (TCR)-CD3 interaction using a TAMRA-labeled BSA probe.; type: functional
Chain of Albumin (P02769 whole entry): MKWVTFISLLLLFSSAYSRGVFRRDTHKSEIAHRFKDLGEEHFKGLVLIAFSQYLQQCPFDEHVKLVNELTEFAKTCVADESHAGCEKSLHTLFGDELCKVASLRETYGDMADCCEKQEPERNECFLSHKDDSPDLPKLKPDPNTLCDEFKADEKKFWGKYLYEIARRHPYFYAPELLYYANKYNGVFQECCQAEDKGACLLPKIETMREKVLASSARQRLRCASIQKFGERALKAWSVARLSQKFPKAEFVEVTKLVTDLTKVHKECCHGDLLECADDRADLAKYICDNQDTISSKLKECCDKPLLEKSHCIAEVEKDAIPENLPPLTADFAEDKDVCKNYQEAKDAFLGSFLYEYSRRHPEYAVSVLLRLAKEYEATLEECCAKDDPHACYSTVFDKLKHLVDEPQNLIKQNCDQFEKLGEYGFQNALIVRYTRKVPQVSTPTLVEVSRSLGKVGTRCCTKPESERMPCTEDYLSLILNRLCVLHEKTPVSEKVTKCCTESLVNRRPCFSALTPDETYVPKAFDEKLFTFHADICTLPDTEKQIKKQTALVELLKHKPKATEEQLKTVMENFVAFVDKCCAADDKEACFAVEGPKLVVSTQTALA

Large T antigen = Large T antigen (Simian virus 40, UniProt P03070); type: functional, Betapolyomavirus macacae;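 note: Confirmatory-stage PubChem screen for compounds that inhibit SV40 T antigen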
Chain of Large T antigen (P03070 whole entry): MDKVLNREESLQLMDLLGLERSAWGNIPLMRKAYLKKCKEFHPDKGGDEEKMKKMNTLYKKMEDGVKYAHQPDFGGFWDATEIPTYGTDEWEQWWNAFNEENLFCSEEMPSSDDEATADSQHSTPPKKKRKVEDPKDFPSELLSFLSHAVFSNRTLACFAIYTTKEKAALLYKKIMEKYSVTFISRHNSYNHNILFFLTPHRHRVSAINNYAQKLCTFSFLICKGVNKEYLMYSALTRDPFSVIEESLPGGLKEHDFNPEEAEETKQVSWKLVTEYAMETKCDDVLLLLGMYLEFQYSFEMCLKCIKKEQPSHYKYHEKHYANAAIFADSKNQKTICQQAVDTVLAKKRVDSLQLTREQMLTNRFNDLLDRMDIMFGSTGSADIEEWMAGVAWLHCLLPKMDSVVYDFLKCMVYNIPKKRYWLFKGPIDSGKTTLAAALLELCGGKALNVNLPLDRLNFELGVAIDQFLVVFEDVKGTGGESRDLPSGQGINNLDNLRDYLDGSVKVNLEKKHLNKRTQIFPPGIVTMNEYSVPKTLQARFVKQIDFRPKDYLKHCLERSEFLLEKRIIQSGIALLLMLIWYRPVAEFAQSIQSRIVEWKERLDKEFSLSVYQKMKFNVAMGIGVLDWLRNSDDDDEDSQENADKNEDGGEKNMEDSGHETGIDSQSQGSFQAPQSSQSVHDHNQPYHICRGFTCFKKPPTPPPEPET

[6] = molecular target: Neurotensin receptor type 1 (Homo sapiens, UniProt P30989); type: functional;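 note: Image-based confirmatory dose-response assay measuring agonist activity at NTR1; NTR1-expressing U2OS osteosarcoma cells imaged for beta-arrestin GFP spot formation; agonist potency where compounds increase beta-arrestin recruitment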
Chain of Neurotensin receptor type 1 (P30989 whole entry): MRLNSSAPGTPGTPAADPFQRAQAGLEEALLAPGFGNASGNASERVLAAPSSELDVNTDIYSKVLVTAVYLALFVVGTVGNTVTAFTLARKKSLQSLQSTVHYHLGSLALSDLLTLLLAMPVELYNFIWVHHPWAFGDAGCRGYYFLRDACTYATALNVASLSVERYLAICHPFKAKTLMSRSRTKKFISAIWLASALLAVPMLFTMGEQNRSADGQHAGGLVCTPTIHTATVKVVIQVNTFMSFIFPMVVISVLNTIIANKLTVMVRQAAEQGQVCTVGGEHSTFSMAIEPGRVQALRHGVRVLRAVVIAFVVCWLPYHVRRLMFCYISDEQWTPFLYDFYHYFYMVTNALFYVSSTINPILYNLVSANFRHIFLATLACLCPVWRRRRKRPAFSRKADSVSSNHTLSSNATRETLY

[7] = THP-1 cell cytotoxicity, dose response, cytotoxicity control for Vif-APOBEC3G degradation inhibitor project, THP-1 cells (AID 1117359); type: functional; conditions: Human immunodeficiency virus 1, THP-1
[8] = molecular target: T2, Heat shock 70 kDa protein 1A (Homo sapiens, UniProt P0DMV8); assay: Hsp70 inhibitors, probe displacement, primary screen, biochemical, fluorescence polarization (AID 583)
T2 sequence (P0DMV8 whole entry): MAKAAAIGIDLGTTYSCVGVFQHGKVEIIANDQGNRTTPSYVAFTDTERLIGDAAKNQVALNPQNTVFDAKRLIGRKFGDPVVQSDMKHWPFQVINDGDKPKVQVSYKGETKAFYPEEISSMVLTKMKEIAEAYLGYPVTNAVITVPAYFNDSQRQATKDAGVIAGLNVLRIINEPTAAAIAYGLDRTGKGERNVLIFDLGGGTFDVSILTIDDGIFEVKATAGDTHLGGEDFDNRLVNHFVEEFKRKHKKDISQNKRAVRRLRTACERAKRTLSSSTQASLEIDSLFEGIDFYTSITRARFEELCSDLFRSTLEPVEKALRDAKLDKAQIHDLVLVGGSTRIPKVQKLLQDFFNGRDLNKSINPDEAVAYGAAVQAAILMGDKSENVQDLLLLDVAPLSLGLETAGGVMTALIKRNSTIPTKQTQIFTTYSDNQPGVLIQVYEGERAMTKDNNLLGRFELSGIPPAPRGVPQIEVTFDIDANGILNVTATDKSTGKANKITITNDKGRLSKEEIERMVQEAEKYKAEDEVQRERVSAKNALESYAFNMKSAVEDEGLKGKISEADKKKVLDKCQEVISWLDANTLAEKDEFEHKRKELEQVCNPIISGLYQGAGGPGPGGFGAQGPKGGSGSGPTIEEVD

[9] = molecular target: T2, Heat shock 70 kDa protein 1A; assay: Hsp70 inhibitors, biochemical, TR-FRET (AID 786)
[10] = cytotoxicity in HEK-293T cells, dose response, cytotoxicity control for BCR NF-kB inhibitor project, luminescence, B-cell screen hits (AID 489021); type: functional, cell-based;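 note: HEK-293T cells carrying an NF-kB luciferase reporter; cells exposed to compound for about 14 hours before viability readout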

Chain of Induced myeloid leukemia cell differentiation protein Mcl-1 (Q07820 whole entry): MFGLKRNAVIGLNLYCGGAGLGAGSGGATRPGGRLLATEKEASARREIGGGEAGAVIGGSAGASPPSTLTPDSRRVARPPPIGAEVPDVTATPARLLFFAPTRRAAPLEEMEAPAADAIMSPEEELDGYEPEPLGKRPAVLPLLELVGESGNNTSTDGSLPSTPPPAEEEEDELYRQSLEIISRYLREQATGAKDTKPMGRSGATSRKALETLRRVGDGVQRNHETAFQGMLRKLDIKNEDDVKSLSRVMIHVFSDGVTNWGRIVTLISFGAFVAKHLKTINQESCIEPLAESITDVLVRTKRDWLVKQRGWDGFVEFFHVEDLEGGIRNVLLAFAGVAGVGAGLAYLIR
Chain of 72 kDa type IV collagenase (P08253 whole entry): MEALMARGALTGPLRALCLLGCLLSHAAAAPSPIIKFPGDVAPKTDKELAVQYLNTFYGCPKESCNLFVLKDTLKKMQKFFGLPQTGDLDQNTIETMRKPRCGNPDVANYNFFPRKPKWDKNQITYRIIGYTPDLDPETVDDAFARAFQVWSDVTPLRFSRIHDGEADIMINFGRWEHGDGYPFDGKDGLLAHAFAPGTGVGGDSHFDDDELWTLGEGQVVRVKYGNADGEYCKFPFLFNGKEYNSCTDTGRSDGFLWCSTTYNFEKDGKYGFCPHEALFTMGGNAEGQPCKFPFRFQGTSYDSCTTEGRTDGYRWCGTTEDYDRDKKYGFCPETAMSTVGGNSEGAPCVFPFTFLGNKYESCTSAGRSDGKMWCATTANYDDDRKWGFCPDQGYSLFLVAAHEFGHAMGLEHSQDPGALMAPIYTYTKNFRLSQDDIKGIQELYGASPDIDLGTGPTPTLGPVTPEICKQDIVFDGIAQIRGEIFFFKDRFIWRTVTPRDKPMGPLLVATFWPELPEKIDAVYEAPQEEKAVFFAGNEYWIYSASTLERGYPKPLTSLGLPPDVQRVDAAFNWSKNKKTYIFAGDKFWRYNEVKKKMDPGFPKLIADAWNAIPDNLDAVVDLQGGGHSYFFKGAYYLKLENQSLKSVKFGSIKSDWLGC

- IC50 [1]: 3.91 µM (active)
- IC50 [2]: > 100 µM (inactive)
- IC50 (Prothrombin): 55.4 µM (active)
- IC50 (SUMO-activating enzyme [3]): 1.38 µM (active)
- IC50 (SUMO-activating enzyme [4]): 17.6 µM (active)
- IC50 [5]: 6.88 µM (active)
SMILES: Cc1ccc(CSc2nnc(SCC(=O)N/N=C/c3c[nH]c4ccccc34)s2)cc1

SMILES: O=c1cc(-c2ccc(O)cc2)oc2cc(O)c(C3OC(CO)C(O)C(O)C3O)c(O)c12 (stereo not given)
- IC50 (Albumin): > 94.1 µM (inactive)
- IC50 (Large T antigen): 21.4 µM (active)
- EC50 [6]: 2.71 µM (active)
- CC50 [7]: > 40 µM (active)

- IC50 [8]: > 100 µM (not active)
- IC50 [9]: > 100 µM (not active)
SMILES: CCOc1ccccc1N1Cc2cc(C)c(C)cc2C1

- IC50 [8]: > 100 µM (not active)
- IC50 [9]: > 100 µM (not active)
SMILES: C=CCOC(=O)C(C#N)c1nc2ccccc2nc1N1CCCC1 (stereo not given)

SMILES: COc1cc(C[C@@H]2C(=O)OC[C@H]2Cc2ccc(OC)c(OC)c2)ccc1O
- IC50 [10]: > 80 µM (inactive)
